The values that follow are results of earlier work, collected in patent publication US20220361717A1, “Anti-Pathogenic Hand Sanitization Station” (priority 2021, published 2022).

Series [1] concerns Bacteria: S. Aureus; P. aeruginosa; E. coli.
Series [2] relates to Bacteria: Pseudomonas aeruginosa; Staphylococccus.
In series [3] the test system is Bacteria: S. aureus; E. coli. The note with it: value = inhibited species.
For series [4], the system named is Bacteria: Gram-positive; Gram-negative. The note with it: copolymerization of antimicrobial monomer and styrene; effect on the potency of the monomer.
For series [5], the system named is Bacteria: E. coli; S. aureus; S. typhimurium.
Series [6] concerns Bacteria: Gram-postive bacteria. As to conditions: homopolymer versus model compound p-ethylbenzyl tetramethylene sulforium tetrafluoroborate.
The subject of another series is Bacteria: E-coli. The note with it: value = inhibited species.

“Also recorded” adds a separate entry of the source.

Turning to `C=C(C)C(=O)OCC(O)CSc1nnc(C)s1` (stereo not shown), in series [1] (homopolymer effectiveness versus the monomer), the “Comparison of Polymers with Monomer” value was “more”. Besides, in series [1] (value = inhibited species), the “Inhibited Microbial Species” value was “Bacteria: S. Aureus;; also recorded: P. aeruginosa;; also recorded: E. coli;”.

Turning to `C=CC(=O)Oc1cc(Cl)ccc1Oc1ccc(Cl)cc1Cl`, in series [2] (homopolymer and copolymers with methyl methacrylate, styrene versus the monomer), the “Comparison of Polymers with Monomer” value is listed as “less effective”. In series [2] (value = inhibited species, 'Pseudomonas aeruginosa' wrapped over cells), the “Inhibited Microbial Species” value was “Staphylococccus”. As to `C=C(C)C(=O)OCCOC(=O)C(C)CC1(CCCCCCCC)CCC(CCCCCCCC)(CC(C)C(=O)OCCOC(=O)C(=C)C)CC1` (stereo not shown), the “Inhibited Microbial Species” value in series [3] is on record as “Bacteria: S. aureus;; also recorded: E. coli”. As for `C=CC(=O)Nc1cccc(C)c1`, the “Comparison of Polymers with Monomer” value in series [4] is recorded as “styrene decreases”.

As for `C=CC(=O)Oc1ccc(Cl)c2cccnc12`, the “Comparison of Polymers with Monomer” value in series [5] (homopolymer and copolymers with acrylamide versus the monomer) is “less effective than”. Moreover, in series [5] (value = inhibited species), the “Inhibited Microbial Species” value is “S. aureus;; also recorded: S. typhimurium”. `C=Cc1ccc(C[S+]2CCCC2)cc1`: in series [6], the “Comparison of Polymers with Monomer” value was “is more effective”. With `C=CC(=O)N1C(C)(C)NC(=O)C1(C)C`, the “Inhibited Microbial Species” value with Bacteria: E-coli is “Bacteria: E-coli”.
